Experimental data from patent US20060167083A1, “Therapeutic methods and compositions involving isoflav-3-ene and isoflavan structures” (priority 2002, published 2006).
In brackets after ≈: the same amount, converted by molar mass. Several values for one entry are separate records, joined by “and”; a condition that tells them apart may be missing. Equal values may be shown once.

Legend:
MMP-2 = experiment: Northern blot analysis of MMP-2 mRNA in endothelial cells; assay type: cell-based, human; conditions: 10 μg/ml for 18 hours; two experiments; listed as De
Procedure: Northern blot analysis: HUVEC were plated at 1×10^6 cells per 25 cm^2 flask and grown for 48 hours. Following treatment with DMSO vehicle or De (10 μg/ml final) for 18 hours, total RNA was harvested and purified using TRIZOL reagent (Invitrogen—Life Technologies, Groningen, Netherlands) according to the manufacturer's protocol. Northern blot analysis was performed using 8 μg total RNA transferred onto Hybond-N membranes (Amersham Biosciences, Buckinghamshire, England) and probed with human MMP-2 and GAPDH cDNAs using a Strip-EZ PCR stripAble PCR Probe synthesis and removal Kit (Ambion, Tex., USA).

[1] = test system: K562, HL60, MCF7, HT29, CaCo-2, DU145, PC3 and LNCaP cell lines; experiment: Cytotoxic potency compared with genistein on the cancer cell line panel; assay type: cell-based; conditions: on these cell lines
colon cancer line CaCo-2 = experiment: Anti-proliferative effect on CaCo-2; assay type: cell-based; conditions: Homo sapiens
[2] = test system: Human umbilical vein endothelial cells (HUVEC); experiment: Endothelial cell migration (wound) assay; assay type: cell-based
Procedure: Migration assay: HUVEC were plated at 5×10^5 cells per gelatin-coated 6 well dish and grown to confluence over 48 hours. Wounds were made in the monolayer, cells washed 3 times and fresh complete media with or without De (10 μg/ml final concentration) added. Migration was viewed over the following 18-72 hours.

leukaemic cell line K562 = experiment: Anti-proliferative effect on K562; assay type: cell-based; conditions: Homo sapiens
VCAM-1 = VCAM-1 expression assay on endothelial cells (FACS); assay type: cell-based, human; conditions: 10 μg/ml 18 hours prior to stimulation; TNF and IL-1
Procedure: E selectin and VCAM-1 assays: HUVEC were plated at 5×10^5 cells per 6 well dish. Cells were treated with DMSO vehicle or De (10 μg/ml final) for 18 hours prior to TNFα (1 ng/ml) addition. After 4 or 18 hours, cells were washed with PBS and incubated with antibodies against E selectin (Mab49-1B11) or VCAM-1 (Nab51-10C9) for 30 min. Goat F(ab′)2 fragment mouse-IgG(H+L)-FITC antibody (Immunotech, Marseille, France) was then added for 30 min. The cells were then trypsinised and FACS analysed on a Coulter Epics® XL-MCL (Beckman Coulter). Results are expressed as arbitrary units relating to the mean intensity of FITC fluorescence.

PECAM-1 = PECAM-1 expression on EC, flow cytometric analysis; assay type: cell-based; conditions: after De treatment, data not shown
human topo I = molecular target: T1, human topo I (Homo sapiens, UniProt P11387); experiment: Topo I-mediated plasmid-nicking assay; assay type: biochemical; conditions: 20 and 100 μg/ml
T1 construct: purchased Topogen (Columbus, Ohio)
T1 sequence (P11387 1-765): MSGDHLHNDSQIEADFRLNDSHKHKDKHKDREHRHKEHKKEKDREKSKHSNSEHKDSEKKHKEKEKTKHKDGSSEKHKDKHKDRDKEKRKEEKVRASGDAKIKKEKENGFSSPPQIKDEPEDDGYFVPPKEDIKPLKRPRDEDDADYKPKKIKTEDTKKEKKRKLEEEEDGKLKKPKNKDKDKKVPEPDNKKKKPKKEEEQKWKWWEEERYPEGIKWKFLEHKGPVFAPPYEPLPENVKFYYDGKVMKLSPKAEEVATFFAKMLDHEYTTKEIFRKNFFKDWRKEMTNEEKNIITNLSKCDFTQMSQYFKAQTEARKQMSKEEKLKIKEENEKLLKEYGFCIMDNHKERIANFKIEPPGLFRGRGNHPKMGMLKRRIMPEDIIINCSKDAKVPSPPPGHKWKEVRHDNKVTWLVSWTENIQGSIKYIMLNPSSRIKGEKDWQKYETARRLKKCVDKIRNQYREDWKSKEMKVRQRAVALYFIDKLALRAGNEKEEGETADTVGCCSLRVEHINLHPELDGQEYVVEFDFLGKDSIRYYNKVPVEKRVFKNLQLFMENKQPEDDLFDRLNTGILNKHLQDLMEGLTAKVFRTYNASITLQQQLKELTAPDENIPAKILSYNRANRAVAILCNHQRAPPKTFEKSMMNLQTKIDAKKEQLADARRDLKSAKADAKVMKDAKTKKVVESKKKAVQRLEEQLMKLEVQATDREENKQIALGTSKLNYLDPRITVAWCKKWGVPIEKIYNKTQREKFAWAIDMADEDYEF
Procedure: Single-strand DNA breakage was determined by converting relaxed (REL) or supercoiled (SC) pUC8 DNA to the nicked form (NIC).
Under the electrophoretic conditions that were used in the experiment shown in FIG. 4, covalently closed circular (supercoiled or relaxed) plasmid DNA migrates on the bottom of the gel. In the presence of a topo I poison that stabilises the cleavable complex, and following denaturation and degradation of the enzyme with proteinase K/SDS, the resulting nicked DNA migrates on the top of the gel.
Topo I poisons enhance topo I-mediated pUC8 DNA cleavage under the reaction conditions provided by the supplier of the enzyme (Topogen, Inc.). Briefly, 20 μl of reaction mixtures contained 10 mM Tris-HCl, pH 7.5, 1 mM EDTA, 100 mM NaCl, 1 μl of the test agent (or solvent), 0.5 μg of pUC8, and 10 units of human topo I (added last). After a 30-min incubation at 37° C., SDS-proteinase K was added, and, following a 30-min incubation at 37° C., samples were extracted with CHCl3-isopropanol and electrophoresed on a 1% agarose gel containing 0.5 μg/ml ethidium bromide. Gels were photographed, and photographic negatives were scanned.

Oc1ccc(C2=Cc3ccc(O)cc3OC2)cc1 [Dehydroequol, 4′,7-dihydroxyisoflav-3-ene]
decrease in level of mRNA for MMP-2 (MMP-2): 68.3% and 46.7% | potency as a cytotoxic agent relative to genistein [1]: 5-20 times | IC50 (colon cancer line CaCo-2): 1 µg/mL (≈ 4.16 µM) | inhibition of EC migration ([2]; 10 μg/ml): inhibits | viability of EC not in the vicinity of the wound ([2]; in the presence of De for 72 hours): remained viable | IC50 (leukaemic cell line K562): 3 µg/mL (≈ 12.5 µM) | induction of VCAM-1 on the endothelium (VCAM-1): inhibits the induction | level of expression of PECAM-1 (PECAM-1): no changes | topo I-mediated single-strand DNA breakage (nicked DNA) (human topo I): failed to produce nicked DNA
